Values quoted from earlier work, collected in patent publication US20210186870A1, “IMPROVED CANNABINOID BIOAVAILABILITY” (EMERALD HEALTH TH[…] INC., priority 2018, published 2021).
Read-outs that look alike come from different tables or passages of the source.

SMILES: CCCCCc1cc(O)c2c(c1)OC(C)(C)[C@@H]1CCC(C)=C[C@@H]21 [THC, tetrahydrocannabinol]
- bioavailability of THC (from inhaled cannabis smoke): 2-56%
- bioavailability of THC (orally consumed cannabis): 4-20%
